We go through 2 compounds from ChEMBL document CHEMBL1133799, “A disubstituted NAD+ analogue is a nanomolar inhibitor of trypanosomal glyceraldehyde-3-phosphate dehydrogenase” (Bioorg Med Chem Lett, 2001).

In data set [1] the test system is Trypanosoma.
Description: Binding affinity for NAD- in trypanosomal glyceraldehyde-3-phosphate dehydrogenase (GAPDH)
Data set [2] concerns COc1cccc(C(=O)N[C@@H]2[C@H](O)[C@@H](CO)O[C@H]2n2cnc3c(NCc4cccc5ccccc45)ncnc32)c1.
Description: Binding affinity for NAD- in human glyceraldehyde-3-phosphate dehydrogenase (GAPDH)

Chain of Glyceraldehyde-3-phosphate dehydrogenase (Homo sapiens), P04406 (P04406 whole entry): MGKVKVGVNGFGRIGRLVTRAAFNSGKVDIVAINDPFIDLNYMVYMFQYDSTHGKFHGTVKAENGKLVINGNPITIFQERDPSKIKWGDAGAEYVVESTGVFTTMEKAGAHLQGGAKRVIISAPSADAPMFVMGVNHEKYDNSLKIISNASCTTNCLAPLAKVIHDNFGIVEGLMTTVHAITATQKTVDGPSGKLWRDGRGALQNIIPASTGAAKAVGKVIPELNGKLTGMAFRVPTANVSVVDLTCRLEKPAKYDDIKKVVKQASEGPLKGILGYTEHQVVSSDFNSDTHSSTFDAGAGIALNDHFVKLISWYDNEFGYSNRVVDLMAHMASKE

Consider `COc1cccc(C(=O)N[C@@H]2[C@H](O)[C@@H](CO)O[C@H]2n2cnc3c(NCc4cccc5ccccc45)ncnc32)c1`, for which, in data set [1], the Km (in general, the concentration of substrate that gives half-maximal velocity) worked out at 0.45 µM. As for “Glyceraldehyde-3-phosphate dehydrogenase (Homo sapiens), P04406”, the Km in data set [2] came to 0.04 µM.
